# Experimental data as given in patent US12077503B2, “Substituted cyclic amides and their use as herbicides” (FMC CORPORATION, priority 2015, dated 2024).
# Assays:
# Type in all cases: in vivo
# [1] = test system: ducksalad (Heteranthera limosa); experiment: Test B flooded paddy test; conditions: Heteranthera limosa, 250 g ai/ha, Flood; 0 to 100 scale where 0 is no effect and 100 is complete control; read-out: Ducksalad plant response rating
# Outline: (§1)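 Compound goes directly into floodwater once pots are flooded 3 cm above soil, targeting plants at two leaves; the water depth is then held for the test duration. Plants sit 13–15 d in a greenhouse and are rated visually, 100 denoting complete control.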
# [2] = test system: sedge, umbrella (small-flower umbrella sedge, Cyperus difformis); experiment: Test B flooded paddy test; conditions: Cyperus difformis, 250 g ai/ha, Flood; 0 to 100 scale where 0 is no effect and 100 is complete control; read-out: Sedge, Umbrella plant response rating
# Outline: as §1
# [3] = test system: barnyardgrass (Echinochloa crus-galli); experiment: Test B flooded paddy test; conditions: Echinochloa crus-galli, 250 g ai/ha, Flood; 0 to 100 scale where 0 is no effect and 100 is complete control; read-out: Barnyardgrass plant response rating
# Outline: as §1
# [4] = test system: rice (Oryra sativa); experiment: Test B flooded paddy test; conditions: Oryza sativa, 250 g ai/ha, Flood; 0 to 100 scale where 0 is no effect and 100 is complete control; read-out: Rice plant response rating
# Outline: as §1
# [5] = test system: corn (Zea mays); experiment: Test A postemergence; conditions: Zea mays, post-emergence, 240 h, Postemergence
# Outline: (§2)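 Preemergence soil spray on seeded pots or post-emergence spray on 1–2 leaf plants, in loam–sand blend. Greenhouse ~10 d. Visual rating 0–100 against untreated plants.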
# [6] = test system: ryegrass, Italian (Italian ryegrass, Lolium multiflorum); experiment: Test A postemergence; conditions: Lolium multiflorum, post-emergence, 240 h, Postemergence, read-out: Plant response rating, Ryegrass, Italian
# Outline: as §2
# [7] = test system: ragweed (common ragweed, Ambrosia elatior); experiment: Test A postemergence; conditions: Ambrosia artemisiifolia, post-emergence, 240 h, Postemergence, read-out: Plant response rating, Ragweed
# Outline: as §2
# [8] = test system: giant foxtail (Setaria faberii); experiment: Test A postemergence; conditions: Setaria faberi, post-emergence, 240 h, Postemergence, read-out: Plant response rating, Foxtail, Giant
# Outline: as §2
# [9] = test system: Galium (catchweed bedstraw, Galium aparine); experiment: Test A postemergence; conditions: Galium, post-emergence, 240 h, Postemergence, read-out: Plant response rating, Galium
# Outline: as §2
# [10] = test system: blackgrass (Alopecurus myosuroides); experiment: Test A postemergence; conditions: Alopecurus myosuroides, post-emergence, 240 h, Postemergence, read-out: Plant response rating, Blackgrass
# Outline: as §2
# [11] = test system: barnyardgrass (Echinochloa crus-galli); experiment: Test A postemergence; conditions: Echinochloa crus-galli, post-emergence, 240 h, Postemergence, read-out: Plant response rating, Barnyardgrass
# Outline: as §2
# [12] = test system: pigweed (Amaranthus retroflexus); experiment: Test A postemergence; conditions: Amaranthus retroflexus, post-emergence, 240 h, Postemergence, read-out: Plant response rating, Pigweed
# Outline: as §2
# [13] = test system: Kochia (Kochia scoparia); experiment: Test A postemergence; conditions: Bassia scoparia, post-emergence, 240 h, Postemergence, read-out: Plant response rating, Kochia
# Outline: as §2
# [14] = test system: wheat (Triticum aestivum); experiment: Test A postemergence; conditions: Triticum aestivum, post-emergence, 240 h, Postemergence, read-out: Plant response rating, Wheat
# Outline: as §2
# [15] = test system: ryegrass, Italian (Italian ryegrass, Lolium multiflorum); experiment: Test A preemergence; conditions: Lolium multiflorum, pre-emergence, 240 h, Preemergence
# Outline: as §2
# [16] = test system: ragweed (common ragweed, Ambrosia elatior); experiment: Test A preemergence; conditions: Ambrosia artemisiifolia, pre-emergence, 240 h, Preemergence
# Outline: as §2
# [17] = test system: giant foxtail (Setaria faberii); experiment: Test A preemergence; conditions: Setaria faberi, pre-emergence, 240 h, Preemergence
# Outline: as §2
# [18] = test system: barnyardgrass (Echinochloa crus-galli); experiment: Test A preemergence; conditions: Echinochloa crus-galli, pre-emergence, 240 h, Preemergence
# Outline: as §2
# [19] = test system: pigweed (Amaranthus retroflexus); experiment: Test A preemergence; conditions: Amaranthus retroflexus, pre-emergence, 240 h, Preemergence
# [20] = test system: Kochia (Kochia scoparia); experiment: Test A preemergence; conditions: Bassia scoparia, pre-emergence, 240 h, Preemergence
# Outline: as §2
# [21] = 125 g ai/ha, visual injury after approximately 10 d, 0 to 100 scale where 0 is no effect and 100 is complete control
# [22] = 31 g ai/ha, visual injury after approx. 10 d, 0 to 100 scale, 0 no effect, 100 complete control
structure (smiles),measurement,setting,value
CN1CC[C@H](c2ccccc2C(F)(F)F)[C@@H](C(=O)Nc2ccccc2C(F)(F)F)C1=O [Compound 1008],pest or weed control at 250 g/ha,[1],95%
same,pest or weed control at 250 g/ha,[2],0%
same,pest or weed control at 250 g/ha,[3],0%
same,pest or weed control at 250 g/ha,[4],0%
same,"Corn plant response rating (crop injury, 0 = no effect, 100 = complete kill) at 125 g/ha",[5]; [21],0%
same,"Corn plant response rating (crop injury, 0 = no effect, 100 = complete kill) at 31 g/ha",[5]; [22],0%
same,pest or weed control at 125 g/ha,[6]; [21],0%
same,pest or weed control at 31 g/ha,[6]; [22],0%
same,pest or weed control at 125 g/ha,[7]; [21],0%
same,pest or weed control at 31 g/ha,[7]; [22],0%
same,pest or weed control at 125 g/ha,[8]; [21],0%
same,pest or weed control at 31 g/ha,[8]; [22],0%
same,pest or weed control at 125 g/ha,[9]; [21],0%
same,pest or weed control at 31 g/ha,[9]; [22],0%
same,pest or weed control at 125 g/ha,[10]; [21],0%
same,pest or weed control at 31 g/ha,[10]; [22],0%
same,pest or weed control at 125 g/ha,[11]; [21],0%
same,pest or weed control at 31 g/ha,[11]; [22],0%
same,pest or weed control at 125 g/ha,[12]; [21],0%
same,pest or weed control at 31 g/ha,[12]; [22],0%
same,pest or weed control at 125 g/ha,[13]; [21],0%
same,pest or weed control at 31 g/ha,[13]; [22],0%
same,plant injury at 125 g/ha,[14]; [21],0%
same,plant injury at 31 g/ha,[14]; [22],0%
same,pest or weed control at 31 g/ha,"[15]; 31 g ai/ha, 0 to 100 scale where 0 is no effect and 100 is complete control, read-out: Ryegrass, Italian plant response rating",0%
same,pest or weed control at 125 g/ha,"[15]; 125 g ai/ha, visual injury rating after approximately 10 d, read-out: Ryegrass, Italian plant response rating (0 to 100 scale, 0 is no effect, 100 is complete control)",0%
same,pest or weed control at 31 g/ha,"[16]; 31 g ai/ha, 0 to 100 scale where 0 is no effect and 100 is complete control, read-out: Ragweed plant response rating",0%
same,pest or weed control at 125 g/ha,"[16]; 125 g ai/ha, visual injury rating after approximately 10 d, read-out: Ragweed plant response rating (0 to 100 scale, 0 is no effect, 100 is complete control)",0%
same,pest or weed control at 125 g/ha,"[17]; 125 g ai/ha, visual injury rating after approximately 10 d, read-out: Foxtail, Giant plant response rating (0 to 100 scale, 0 is no effect, 100 is complete control)",0%
same,pest or weed control at 31 g/ha,"[17]; 31 g ai/ha, 0 to 100 scale (0 no effect, 100 complete control), read-out: Plant response rating, Foxtail, Giant",0%
same,pest or weed control at 125 g/ha,"[18]; 125 g ai/ha, visual injury rating after approximately 10 d, read-out: Barnyardgrass plant response rating (0 to 100 scale, 0 is no effect, 100 is complete control)",0%
same,pest or weed control at 31 g/ha,"[18]; 31 g ai/ha, 0 to 100 scale (0 no effect, 100 complete control), read-out: Plant response rating, Barnyardgrass",0%
same,pest or weed control at 31 g/ha,"[19]; 31 g ai/ha, 0 to 100 scale where 0 is no effect and 100 is complete control, read-out: Pigweed plant response rating",0%
same,pest or weed control at 125 g/ha,"[19]; 125 g ai/ha, visual injury rating after approximately 10 d, read-out: Pigweed plant response rating (0 to 100 scale, 0 is no effect, 100 is complete control)",0%
same,pest or weed control at 31 g/ha,"[20]; 31 g ai/ha, 0 to 100 scale where 0 is no effect and 100 is complete control, read-out: Kochia plant response rating",0%
same,pest or weed control at 125 g/ha,"[20]; 125 g ai/ha, visual injury rating after approximately 10 d, read-out: Kochia plant response rating (0 to 100 scale, 0 is no effect, 100 is complete control)",0%
